From ChEMBL document CHEMBL4308864, “Targeting tyrosine kinase: Development of acridone - pyrrole - oxindole hybrids against human breast cancer” (2019)

What was measured:
Type in all cases: functional
SW-620 = experiment: Growth inhibition of human SW620 cells assessed as cell growth at 10^-5 M incubated for 48 hrs by sulforhodamine B assay relative to control; conditions: SW-620, 48 h, read-out: Activity
SR = experiment: Growth inhibition of human SR cells assessed as cell growth at 10^-5 M incubated for 48 hrs by sulforhodamine B assay relative to control; conditions: read-out: Activity
NCI-H23 = experiment: Growth inhibition of human NCI-H23 cells assessed as cell growth at 10^-5 M incubated for 48 hrs by sulforhodamine B assay relative to control; conditions: NCI-H23, 48 h, read-out: Activity
K562 = experiment: Growth inhibition of human K562 cells assessed as cell growth at 10^-5 M incubated for 48 hrs by sulforhodamine B assay relative to control; conditions: K562, 48 h, read-out: Activity
HCT-116 = experiment: Growth inhibition of human HCT116 cells assessed as cell growth at 10^-5 M incubated for 48 hrs by sulforhodamine B assay relative to control; conditions: HCT-116, 48 h, read-out: Activity
SK-MEL-5 = experiment: Growth inhibition of human SK-MEL-5 cells assessed as cell growth at 10^-5 M incubated for 48 hrs by sulforhodamine B assay relative to control; conditions: SK-MEL-5, 48 h, read-out: Activity
UACC-257 = experiment: Growth inhibition of human UACC257 cells assessed as cell growth at 10^-5 M incubated for 48 hrs by sulforhodamine B assay relative to control; conditions: UACC-257, 48 h, read-out: Activity
MOLT-4 = experiment: Growth inhibition of human MOLT4 cells assessed as cell growth at 10^-5 M incubated for 48 hrs by sulforhodamine B assay relative to control; conditions: MOLT-4, 48 h, read-out: Activity
PC-3 = experiment: Growth inhibition of human PC3 cells assessed as cell growth at 10^-5 M incubated for 48 hrs by sulforhodamine B assay relative to control; conditions: PC-3, 48 h, read-out: Activity
HCC 2998 = experiment: Growth inhibition of human HCC2998 cells assessed as cell growth at 10^-5 M incubated for 48 hrs by sulforhodamine B assay relative to control; conditions: HCC 2998, 48 h, read-out: Activity
SN12C = experiment: Growth inhibition of human SN12C cells assessed as cell growth at 10^-5 M incubated for 48 hrs by sulforhodamine B assay relative to control; conditions: read-out: Activity
IGROV-1 = experiment: Growth inhibition of human IGROV1 cells assessed as cell growth at 10^-5 M incubated for 48 hrs by sulforhodamine B assay relative to control; conditions: IGROV-1, 48 h, read-out: Activity
A549 = experiment: Growth inhibition of human A549/ATCC cells assessed as cell growth at 10^-5 M incubated for 48 hrs by sulforhodamine B assay relative to control; conditions: A549, 48 h, read-out: Activity
ACHN = experiment: Growth inhibition of human ACHN cells assessed as cell growth at 10^-5 M incubated for 48 hrs by sulforhodamine B assay relative to control; conditions: read-out: Activity
OVCAR-4 = experiment: Growth inhibition of human OVCAR4 cells assessed as cell growth at 10^-5 M incubated for 48 hrs by sulforhodamine B assay relative to control; conditions: OVCAR-4, 48 h, read-out: Activity
HOP-62 = experiment: Growth inhibition of human HOP62 cells assessed as cell growth at 10^-5 M incubated for 48 hrs by sulforhodamine B assay relative to control; conditions: HOP-62, 48 h, read-out: Activity
OVCAR-3 = experiment: Growth inhibition of human OVCAR3 cells assessed as cell growth at 10^-5 M incubated for 48 hrs by sulforhodamine B assay relative to control; conditions: OVCAR-3, 48 h, read-out: Activity
RPMI-8226 = experiment: Growth inhibition of human RPMI8226 cells assessed as cell growth at 10^-5 M incubated for 48 hrs by sulforhodamine B assay relative to control; conditions: RPMI-8226, 48 h, read-out: Activity
RXF 393 = experiment: Growth inhibition of human RXF393 cells assessed as cell growth at 10^-5 M incubated for 48 hrs by sulforhodamine B assay relative to control; conditions: RXF 393, 48 h, read-out: Activity
SNB-19 = experiment: Growth inhibition of human SNB19 cells assessed as cell growth at 10^-5 M incubated for 48 hrs by sulforhodamine B assay relative to control; conditions: SNB-19, 48 h, read-out: Activity
SF-268 = experiment: Growth inhibition of human SF268 cells assessed as cell growth at 10^-5 M incubated for 48 hrs by sulforhodamine B assay relative to control; conditions: SF-268, 48 h, read-out: Activity
NCI-H522 = experiment: Growth inhibition of human NCI-H522 cells assessed as cell growth at 10^-5 M incubated for 48 hrs by sulforhodamine B assay relative to control; conditions: NCI-H522, 48 h, read-out: Activity
NCI-H460 = experiment: Growth inhibition of human NCI-H460 cells assessed as cell growth at 10^-5 M incubated for 48 hrs by sulforhodamine B assay relative to control; conditions: NCI-H460, 48 h, read-out: Activity
SK-MEL-2 = experiment: Growth inhibition of human SK-MEL-2 cells assessed as cell growth at 10^-5 M incubated for 48 hrs by sulforhodamine B assay relative to control; conditions: SK-MEL-2, 48 h, read-out: Activity
Malme-3M = experiment: Growth inhibition of human MALME-3M cells assessed as cell growth at 10^-5 M incubated for 48 hrs by sulforhodamine B assay relative to control; conditions: read-out: Activity
U-251 = experiment: Growth inhibition of human U251 cells assessed as cell growth at 10^-5 M incubated for 48 hrs by sulforhodamine B assay relative to control; conditions: U-251, 48 h, read-out: Activity
OVCAR-5 = experiment: Growth inhibition of human OVCAR5 cells assessed as cell growth at 10^-5 M incubated for 48 hrs by sulforhodamine B assay relative to control; conditions: OVCAR-5, 48 h, read-out: Activity

Row | SMILES | growth at 10 µM (SW-620) [%] | growth at 10 µM (SR) [%] | growth at 10 µM (NCI-H23) [%] | growth at 10 µM (K562) [%] | growth at 10 µM (HCT-116) [%] | growth at 10 µM (SK-MEL-5) [%] | growth at 10 µM (UACC-257) [%] | growth at 10 µM (MOLT-4) [%] | growth at 10 µM (PC-3) [%] | growth at 10 µM (HCC 2998) [%] | growth at 10 µM (SN12C) [%] | growth at 10 µM (IGROV-1) [%] | growth at 10 µM (A549) [%] | growth at 10 µM (ACHN) [%] | growth at 10 µM (OVCAR-4) [%] | growth at 10 µM (HOP-62) [%] | growth at 10 µM (OVCAR-3) [%] | growth at 10 µM (RPMI-8226) [%] | growth at 10 µM (RXF 393) [%] | growth at 10 µM (SNB-19) [%] | also measured
1 | O=C1NC(=O)C(=Cc2cccn2CCCn2c3ccccc3c(=O)c3ccccc32)C(=O)N1 | 107 | 91.8 | 104 | 88.4 | 86 | 95.2 | 102 | 93.7 | 98.9 | 104 | 101 | 101 | 94.6 | 102 | 104 | 98.1 | 112 | 88 | 95.9 | 94.2 | growth at 10 µM (SF-268): 99.7%; growth at 10 µM (NCI-H522): 88.6%; growth at 10 µM (NCI-H460): 105%; growth at 10 µM (SK-MEL-2): 109%; growth at 10 µM (Malme-3M): 114%; growth at 10 µM (U-251): 92.5%; growth at 10 µM (OVCAR-5): 99.9%
2 | O=C1NC(=O)C(=Cc2cccn2CCCCCn2c3ccccc3c(=O)c3ccccc32)C(=O)N1 | 105 | 86.8 | 96.3 | 89.1 | 82.2 | 98.7 | 104 | 93.3 | 91 | 105 | 106 | 99.4 | 100 | 105 | 99.8 | 102 | 105 | 92 | 110 | 101 | growth at 10 µM (SF-268): 102%; growth at 10 µM (NCI-H522): 90.5%; growth at 10 µM (NCI-H460): 108%; growth at 10 µM (SK-MEL-2): 107%; growth at 10 µM (Malme-3M): 119%; growth at 10 µM (U-251): 96.8%; growth at 10 µM (OVCAR-5): 101%
3 | O=C1NC(=O)C(=Cc2cccn2CCCCn2c3ccccc3c(=O)c3ccccc32)C(=O)N1 | 87.9 | 51.6 | 81.7 | 58.9 | 76.7 | 73.8 | 91.4 | 70.4 | 86.3 | 100 | 86.6 | 72.1 | 94.6 | 92.8 | 87.2 | 79.1 | 96.6 | 49.4 | 81.4 | 75.4 | growth at 10 µM (SF-268): 85.7%; growth at 10 µM (NCI-H522): 70.5%; growth at 10 µM (NCI-H460): 90.2%; growth at 10 µM (SK-MEL-2): 92.9%; growth at 10 µM (Malme-3M): 95.6%; growth at 10 µM (U-251): 76%; growth at 10 µM (OVCAR-5): 91.8%
